Literature values as cited in patent US11730745B1, “Kit and new method of treatment for skin basal cell and squamous cell carcinoma” (priority 2022, dated 2023).

Tested on: cancer
Details: additional treatment with Selenium

[Se] [Selenium]
Decrease of the frequency of cancer: more than 35%
